Measured values published in article PMC11008251, “Distribution of 2,2′,5,5′-Tetrachlorobiphenyl (PCB52) Metabolites in Adolescent Rats after Acute Nose-Only Inhalation Exposure” (Environmental Science & Technology, 2024).

Assay: Body and organ weights after PCB52 nose-only inhalation
Type: in vivo, Sprague–Dawley rats
Details: for Relative Organ Weights, Brain / Relative Organ Weights, Kidneys / Relative Organ Weights, Liver / Relative Organ Weights, Lung / Relative Organ Weights, Ovaries / Relative Organ Weights, Spleen / Relative Organ Weights, Thymus / Relative Organ Weights, Testies: mean (standard deviation); for Adrenal Glands weight / Body Weight Post Exposure / Kidneys weight / Liver weight / Lung weight / Reproductive organ weight / Spleen weight / Thymus weight: n=6
Description: The Institutional Animal Care and Use Committee of the University of Iowa approved all of the animal protocols. Animals were housed in a temperature- and humidity-controlled room (21 °C, 55% relative humidity) with a 12 h light/dark cycle in an Association for the Assessment and Accreditation of Laboratory Animal Care (AAALAC) accredited animal facility. Animals were provided with food (sterile Teklad 5% stock diet, Harlan, Madison, WI) and water ad libitum throughout the study. Thirty-six male and female Sprague–Dawley rats (7 weeks of age; Charles River, Wilmington, MA) were allowed to acclimate to the animal facility for 8 days after arrival. Prior to exposure, rats (227 ± 27 and 197 ± 13 g, male and female, respectively) were randomly assigned to the exposure groups (n = 6 per group) using a random number generated (Excel, version 2307). Animals were simultaneously exposed for 4 h to a low or high concentration of PCB52-laden per sex) or filtered lab air (Figure 1A). Exposure duration was limited to 4 h along with scheduled training days (30 min at 55 days of age and 2 h at 56 days of age) to acclimate animals and minimize stress. […] Animal exposure occurred for 4 h at 57 days of age. Rats are considered adolescents at this age.[38] Serum was collected immediately after the animals were removed from the nose-only apparatus by cardiac puncture under isoflurane anesthesia. Rats were perfused with saline, and organs were excised and stored at −80 °C. Body and organ weights, including brain, lungs, and thymus, were not altered by PCB52 inhalation regardless of sex or exposure (Tables S2 and S3).

In the case of `Clc1ccc(Cl)c(-c2cc(Cl)ccc2Cl)c1` [PCB52, 2,2′,5,5′-tetrachlorobiphenyl], the “Relative Organ Weights, Brain” value (Females, High) is reported as 0.010 (0.001) g/g BW, the “Relative Organ Weights, Kidneys” value (Females, High) is reported as 0.009 (0.001) g/g BW and the “Relative Organ Weights, Liver” value (Females, High) is reported as 0.042 (0.003) g/g BW. The “Relative Organ Weights, Lung” value (Females, High) was 0.006 (0.001) g/g BW, the “Relative Organ Weights, Ovaries” value (Females, High) was 0.003 (0.001) g/g BW and the “Relative Organ Weights, Spleen” value (Females, High) was 0.002 (0.001) g/g BW. For the same compound, the “Relative Organ Weights, Thymus” value (Females, High) was 0.003 (0.001) g/g BW, the “Relative Organ Weights, Brain” value (Females, Low) was 0.010 (0.001) g/g BW and the “Relative Organ Weights, Kidneys” value (Females, Low) was 0.009 (0.001) g/g BW. The “Relative Organ Weights, Liver” value (Females, Low) was 0.044 (0.002) g/g BW, the “Relative Organ Weights, Lung” value (Females, Low) was 0.007 (0.001) g/g BW and the “Relative Organ Weights, Ovaries” value (Females, Low) was 0.003 (0.001) g/g BW. The “Relative Organ Weights, Spleen” value (Females, Low) was 0.003 (0.001) g/g BW, the “Relative Organ Weights, Thymus” value (Females, Low) was 0.003 (0.001) g/g BW and the “Adrenal Glands weight” value (High exposure group, female) was 0.06 grams. For the same compound, the “Body Weight Post Exposure” value (High exposure group, female) was 196.92 ± 9.39 grams, the Kidneys weight (High exposure group, female) was 1.85 grams and the Liver weight (High exposure group, female) was 8.29 grams. It also gave a Lung weight (High exposure group, female) of 1.23 grams, a Reproductive organ weight (High exposure group, female) of 0.59 ± 0.16 grams and a Spleen weight (High exposure group, female) of 0.44 grams. The Thymus weight (High exposure group, female) was 0.58 ± 0.06 grams, the “Adrenal Glands weight” value (High exposure group, male) was 0.03 grams and the “Body Weight Post Exposure” value (High exposure group, male) was 192.17 ± 22.01 grams. It also gave a Kidneys weight (High exposure group, male) of 1.73 grams, a Liver weight (High exposure group, male) of 9.28 grams and a Lung weight (High exposure group, male) of 1.52 grams. For the same compound, the Reproductive organ weight (High exposure group, male) was 1.82 ± 0.52 grams, the Spleen weight (High exposure group, male) was 0.53 grams and the Thymus weight (High exposure group, male) was 0.56 ± 0.05 grams. For the same compound, the “Adrenal Glands weight” value (Low exposure group, female) was 0.04 grams, the “Body Weight Post Exposure” value (Low exposure group, female) was 183.46 ± 14.31 grams and the Kidneys weight (Low exposure group, female) was 1.70 grams. For the same compound, the Liver weight (Low exposure group, female) was 8.11 grams, the Lung weight (Low exposure group, female) was 1.24 grams and the Reproductive organ weight (Low exposure group, female) was 0.55 ± 0.10 grams. The Spleen weight (Low exposure group, female) was 0.47 grams, the Thymus weight (Low exposure group, female) was 0.61 ± 0.12 grams and the “Adrenal Glands weight” value (Low exposure group, male) was 0.04 grams. The “Body Weight Post Exposure” value (Low exposure group, male) was 228.20 ± 14.09 grams, the Kidneys weight (Low exposure group, male) was 1.99 grams and the Liver weight (Low exposure group, male) was 10.31 grams. It also gave a Lung weight (Low exposure group, male) of 1.48 grams, a Reproductive organ weight (Low exposure group, male) of 2.51 ± 0.14 grams and a Spleen weight (Low exposure group, male) of 0.59 grams. The Thymus weight (Low exposure group, male) was 0.70 ± 0.15 grams, the “Relative Organ Weights, Brain” value (Males, High) was 0.010 (0.001) g/g BW and the “Relative Organ Weights, Kidneys” value (Males, High) was 0.009 (0.001) g/g BW. For the same compound, the “Relative Organ Weights, Liver” value (Males, High) was 0.048 (0.003) g/g BW, the “Relative Organ Weights, Lung” value (Males, High) was 0.008 (0.002) g/g BW and the “Relative Organ Weights, Spleen” value (Males, High) was 0.003 (0.001) g/g BW. For the same compound, the “Relative Organ Weights, Testies” value (Males, High) was 0.009 (0.002) g/g BW, the “Relative Organ Weights, Thymus” value (Males, High) was 0.003 (0.001) g/g BW and the “Relative Organ Weights, Brain” value (Males, Low) was 0.008 (0.001) g/g BW. For the same compound, the “Relative Organ Weights, Kidneys” value (Males, Low) was 0.009 (0.001) g/g BW, the “Relative Organ Weights, Liver” value (Males, Low) was 0.045 (0.002) g/g BW and the “Relative Organ Weights, Lung” value (Males, Low) was 0.007 (0.002) g/g BW. The “Relative Organ Weights, Spleen” value (Males, Low) was 0.003 (0.001) g/g BW, the “Relative Organ Weights, Testies” value (Males, Low) was 0.011 (0.001) g/g BW and the “Relative Organ Weights, Thymus” value (Males, Low) was 0.003 (0.001) g/g BW. The “Body and organ weights, including brain, lungs, and thymus” value (regardless of sex or exposure) was “not altered”.
